{
  "source": "patent US5691376A",
  "about": "“Substituted biphenyl derivatives” (American Home Products Corporation, priority 1996, dated 1997)",
  "origin": "cited, not measured here",
  "key": {"[1]": {"tested_on": "humoral (IgE-like) antibodies", "settings": "albumin allergic challenge; Martel 1977; cited from earlier work"}, "murine T-cell": {"tested_on": "murine T-cell", "settings": "Strauch 1989; cited from earlier work"}},
  "data": [
    {"smiles": "CO[C@H]1C[C@@H]2CC[C@@H](C)[C@@](O)(O2)C(=O)C(=O)N2CCCC[C@H]2C(=O)O[C@H]([C@H](C)C[C@@H]2CC[C@@H](O)[C@H](OC)C2)CC(=O)[C@H](C)/C=C(\\C)[C@@H](O)[C@@H](OC)C(=O)[C@H](C)C[C@H](C)/C=C/C=C/C=C/1C", "note": "[Rapamycin]", "values": [
      {"measurement": "prevention of formation of humoral (IgE-like) antibodies", "setting": "[1]", "value": "prevent the formation of humoral (IgE-like) antibodies in response to an albumin allergic challenge"},
      {"measurement": "inhibition of T-cell activation", "setting": "murine T-cell", "value": "inhibit murine T-cell activation"}
    ]}
  ]
}
